# According to patent publication US20140057915A1, “KINASE INHIBITORS” (TOPIVERT PHARMA LIMITED, priority 2012, published 2014):
# Where two headings read alike, the source gives them in different places.
# Columns and labels:
# [1] = tested on: Salmonella typhimurium, strains TA98 and TA100; test: Mutagenicity assessment (bacterial reverse mutation screen); conditions: presence or absence of S-9 mix; up to 5000 μg/plate
# Method: Mutagenicity Assessment (Bacterial Reverse Mutation Screen)
# Studies were conducted by Sequani (Ledbury, Herefordshire, UK) to assess the compound of Example 77 in vitro for its ability to induce mutations in two histidine dependent auxotrophic mutants of Salmonella typhimurium, strains TA98 and TA100.
# The mutation screen was conducted using the plate incorporation method and was performed in both the presence and absence of S-9 mix (a liver post-mitochondrial fraction derived from the livers of Aroclor 1254 treated rats). The bacteria were exposed to the compound of Example 77 dissolved in dimethylsulphoxide, which solvent was also used as the negative control. The dose levels used were 0.32, 1.6, 8, 40, 200, 1000 or 5000 μg/plate.
# [2] = biological target: CYP2C9 (Homo sapiens, UniProt P11712); test: Time-dependent inhibition of cytochromes (CYP450 TDI); assay type: in vitro ADME; conditions: human, pooled human liver microsomes, pH 7.4, probe diclofenac, CYP2C9 (diclofenac probe), 15 μM, human hepatic microsomes, read-out: 15 μM % Inh
# Method: (§1) (ii) Time-Dependent Inhibition of Cytochromes
# (§2) CYP450 time-dependent inhibition (TDI) assays were performed with test compound at six test concentrations, 0.062 μM to 15 μM (n=2). The test compounds was pre-incubated for 30 minutes with pooled human hepatic microsomes in 0.1 M Tris buffer, pH 7.4, at 37° C. in the presence of cofactor NADPH. A parallel series of incubations (n=2) were prepared with no pre-incubation. Probe substrates were then added (with additional cofactor) and further incubated for the times specified. Concentrations of probe substrates used in the incubations have been optimised to maintain first order reaction conditions.
# (§3) Reactions were terminated with acetonitrile containing analytical internal standard (carbamazepine), samples then centrifuged to remove microsomal protein and analysed using optimised LC/MS-MS conditions. The MS data were normalised to internal standard and compared to the appropriate solvent controls to determine the amount of metabolite formed from the probe substrate relative to the “uninhibited” controls. The results are quoted as % inhibition. These values were then plotted using the sigmoidal dose response equation (shown below) and IC50's calculated.
# (§4) Y=bottom+((top-bottom)/1+10̂((Log IC50−X)*Hill slope)) • X=Log concentration • Y=response
# (§5) Variation in probe turnover between plate wells means that inhibition values recorded below 10-15% may not be significant.
# [3] = biological target: CYP450 (Homo sapiens, UniProt P08684); test: as above; assay type: in vitro ADME; conditions: CYP3A4 (midazolam probe), human hepatic microsomes
# Method: as §1, §2, §3, §4, §5
# [4] = biological target: CYP450 (Homo sapiens, UniProt P11712); test: as above; assay type: in vitro ADME; conditions: CYP2C9 (diclofenac probe), human hepatic microsomes
# Method: as §1, §2, §3, §4, §5
# [5] = biological target: CYP3A4 (Homo sapiens, UniProt P08684); test: as above; assay type: in vitro ADME; conditions: human, pooled human liver microsomes, pH 7.4, probe midazolam, CYP3A4 (midazolam probe), 15 μM, human hepatic microsomes, read-out: 15 μM % Inh
# Method: as §1, §2, §3, §4, §5
# [6] = tested on: SCID mice; test: Adoptive transfer in mice; conditions: mouse
# Method: (D) Adoptive Transfer in Mice
# On Study day 0, female Balb/C mice are terminated and spleens obtained for CD45RB^high cell isolation (Using SCID IBD cell Separation protocol). Approximately 4×10^5 cells/mL CD45RB^high cells are then injected IP (100 μL/mouse) into female SCID animals. On study day 14, mice are weighed and randomized into treatment groups based on body weight. On Day 21, compounds are administered BID, via oral gavage, in a peanut oil vehicle at the dose levels outlined below and a dose volume of 5 mL/kg. Treatment continues until study day 42, at which point the animals are necropsied 4 hours after am administration. The colon length and weight is recorded and used as a secondary endpoint in the study as a measurement of colon oedema. The colon is then divided into six cross-sections, four of which are used for histopathology scoring (primary endpoint) and two are homogenised for cytokine analysis. Data shown is the % inhibition of the induction window between naïve animals and vehicle animals, where higher inhibition implies closer to the non-diseased, naïve, phenotype.
# [7] = biological target: B-Raf (V600e) (Homo sapiens, UniProt P15056, V600E); test: Enzyme binding assay (KINOMEscan)
# Method: (§6) The kinase enzyme binding activities of compounds disclosed herein were determined using a proprietary assay which measures active site-directed competition binding to an immobilized ligand (Fabian, M. A. et al., Nature Biotechnol., 2005, 23:329-336). These assays were conducted by DiscoverX (formerly Ambit; San Diego, Calif.). The percentage inhibition produced by incubation with a test compound is calculated relative to the non-inhibited control.
# [8] = tested on: 71 receptors and 26 enzymes; test: Diversity Profile (Cerep); assay type: binding; conditions: 300 nM
# Method: Studies were conducted by Cerep (Celle-Lévescault, France) to investigate the binding of the compound of Example 77 to a diverse selection of receptors and to investigate either the inhibition or activation of a selection of enzymes (the “Diversity Profile” comprising a total of 71 receptors and 26 enzymes).
# [9] = biological target: p38 MAPKγ (Homo sapiens, UniProt P53778); test: Enzyme binding assay (Kinomescan); conditions: read-out: % Inhibition of kinase binding at 500 nM, p38 MAPKγ
# Method: (§7) Enzyme Binding Assays (Kinomescan)
# (§8) These assays were conducted by DiscoverX (formerly Ambit; San Diego, Calif.). The percentage inhibition produced by incubation with a test compound is calculated relative to the non-inhibited control.
# [10] = biological target: cSrc (Homo sapiens, UniProt P12931); test: Enzyme binding assay (Kinomescan); conditions: read-out: % Inhibition of kinase binding at 500 nM, cSrc
# Method: as §8
# [11] = biological target: GSK3α (Homo sapiens, UniProt P49840); test: Enzyme binding assay (Kinomescan); conditions: read-out: % Inhibition of kinase binding at 500 nM, GSK3α
# Method: as §8
# [12] = biological target: p38 MAPKα (Homo sapiens, UniProt Q16539); test: Enzyme binding assay (Kinomescan); conditions: read-out: % Inhibition of kinase binding at 500 nM, p38 MAPKα
# Method: as §7, §6
# Chain of CYP450 (Homo sapiens, UniProt P08684) (P08684 whole entry): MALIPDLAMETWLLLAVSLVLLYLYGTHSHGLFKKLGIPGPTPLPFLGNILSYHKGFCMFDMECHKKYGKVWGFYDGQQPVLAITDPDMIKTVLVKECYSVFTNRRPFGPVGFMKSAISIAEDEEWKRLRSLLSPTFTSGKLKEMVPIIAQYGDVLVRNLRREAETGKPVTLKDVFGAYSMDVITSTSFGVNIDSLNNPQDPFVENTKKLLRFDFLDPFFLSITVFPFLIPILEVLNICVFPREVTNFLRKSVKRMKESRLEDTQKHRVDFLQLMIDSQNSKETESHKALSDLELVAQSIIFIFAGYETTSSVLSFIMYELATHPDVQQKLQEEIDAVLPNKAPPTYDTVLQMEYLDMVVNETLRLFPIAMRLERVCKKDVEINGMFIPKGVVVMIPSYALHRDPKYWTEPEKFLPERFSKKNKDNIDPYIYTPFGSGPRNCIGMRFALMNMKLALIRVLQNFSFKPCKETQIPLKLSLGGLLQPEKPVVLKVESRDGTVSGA
# Chain of CYP3A4 (P08684 whole entry): as above
# Chain of CYP450 (Homo sapiens, UniProt P11712) (P11712 whole entry): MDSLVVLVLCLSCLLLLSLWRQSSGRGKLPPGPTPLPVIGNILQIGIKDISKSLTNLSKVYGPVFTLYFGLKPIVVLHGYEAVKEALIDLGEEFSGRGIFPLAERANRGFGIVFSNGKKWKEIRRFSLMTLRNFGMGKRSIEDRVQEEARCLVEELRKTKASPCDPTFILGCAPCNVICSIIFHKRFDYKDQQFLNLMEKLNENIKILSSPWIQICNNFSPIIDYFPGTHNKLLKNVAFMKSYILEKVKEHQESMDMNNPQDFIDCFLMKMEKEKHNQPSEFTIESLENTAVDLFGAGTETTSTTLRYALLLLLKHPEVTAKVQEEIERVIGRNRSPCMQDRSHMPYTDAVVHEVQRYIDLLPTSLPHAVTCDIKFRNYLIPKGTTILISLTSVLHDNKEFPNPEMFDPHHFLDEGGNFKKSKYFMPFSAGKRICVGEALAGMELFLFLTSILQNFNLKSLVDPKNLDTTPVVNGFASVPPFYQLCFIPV
# Chain of CYP2C9 (P11712 whole entry): as above
# Chain of GSK3α (P49840 whole entry): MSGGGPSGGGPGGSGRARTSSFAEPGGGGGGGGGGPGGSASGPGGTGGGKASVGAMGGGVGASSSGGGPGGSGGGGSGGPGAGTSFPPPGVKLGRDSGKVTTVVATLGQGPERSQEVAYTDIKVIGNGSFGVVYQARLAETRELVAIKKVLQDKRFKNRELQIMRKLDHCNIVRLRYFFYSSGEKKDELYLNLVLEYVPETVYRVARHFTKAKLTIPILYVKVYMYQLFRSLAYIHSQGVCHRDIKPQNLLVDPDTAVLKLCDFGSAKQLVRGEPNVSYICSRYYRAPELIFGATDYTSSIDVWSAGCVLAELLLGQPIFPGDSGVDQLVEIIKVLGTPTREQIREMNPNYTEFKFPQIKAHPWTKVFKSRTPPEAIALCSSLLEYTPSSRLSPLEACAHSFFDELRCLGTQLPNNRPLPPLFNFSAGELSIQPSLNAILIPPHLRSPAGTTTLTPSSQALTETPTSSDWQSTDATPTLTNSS
# Chain of cSrc (P12931 whole entry): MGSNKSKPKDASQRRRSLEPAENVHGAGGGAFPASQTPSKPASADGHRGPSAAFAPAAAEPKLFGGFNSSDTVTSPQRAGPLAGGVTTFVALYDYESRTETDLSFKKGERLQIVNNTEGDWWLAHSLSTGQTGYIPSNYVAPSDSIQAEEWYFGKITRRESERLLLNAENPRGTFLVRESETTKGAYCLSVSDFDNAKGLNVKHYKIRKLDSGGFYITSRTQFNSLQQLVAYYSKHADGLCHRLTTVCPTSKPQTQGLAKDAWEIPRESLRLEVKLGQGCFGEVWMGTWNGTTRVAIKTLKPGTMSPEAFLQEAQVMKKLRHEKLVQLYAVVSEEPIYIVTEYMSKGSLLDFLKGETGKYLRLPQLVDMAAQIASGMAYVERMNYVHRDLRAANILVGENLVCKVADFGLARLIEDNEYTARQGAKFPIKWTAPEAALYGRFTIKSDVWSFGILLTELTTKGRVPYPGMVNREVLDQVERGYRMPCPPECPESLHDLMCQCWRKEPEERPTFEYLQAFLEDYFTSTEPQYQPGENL
# Chain of p38 MAPKγ (P53778 whole entry): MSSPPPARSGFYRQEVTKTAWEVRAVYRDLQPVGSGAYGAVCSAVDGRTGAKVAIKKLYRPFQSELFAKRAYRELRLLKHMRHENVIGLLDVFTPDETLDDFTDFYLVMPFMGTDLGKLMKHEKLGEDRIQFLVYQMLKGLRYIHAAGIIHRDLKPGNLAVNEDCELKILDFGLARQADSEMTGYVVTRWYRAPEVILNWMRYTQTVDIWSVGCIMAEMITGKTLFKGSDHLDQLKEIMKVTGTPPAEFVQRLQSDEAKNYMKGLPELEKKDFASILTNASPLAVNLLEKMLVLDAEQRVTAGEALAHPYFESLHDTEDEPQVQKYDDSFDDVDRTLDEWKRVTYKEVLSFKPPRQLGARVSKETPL
# Chain of B-Raf (V600e) (P15056 whole entry V600E): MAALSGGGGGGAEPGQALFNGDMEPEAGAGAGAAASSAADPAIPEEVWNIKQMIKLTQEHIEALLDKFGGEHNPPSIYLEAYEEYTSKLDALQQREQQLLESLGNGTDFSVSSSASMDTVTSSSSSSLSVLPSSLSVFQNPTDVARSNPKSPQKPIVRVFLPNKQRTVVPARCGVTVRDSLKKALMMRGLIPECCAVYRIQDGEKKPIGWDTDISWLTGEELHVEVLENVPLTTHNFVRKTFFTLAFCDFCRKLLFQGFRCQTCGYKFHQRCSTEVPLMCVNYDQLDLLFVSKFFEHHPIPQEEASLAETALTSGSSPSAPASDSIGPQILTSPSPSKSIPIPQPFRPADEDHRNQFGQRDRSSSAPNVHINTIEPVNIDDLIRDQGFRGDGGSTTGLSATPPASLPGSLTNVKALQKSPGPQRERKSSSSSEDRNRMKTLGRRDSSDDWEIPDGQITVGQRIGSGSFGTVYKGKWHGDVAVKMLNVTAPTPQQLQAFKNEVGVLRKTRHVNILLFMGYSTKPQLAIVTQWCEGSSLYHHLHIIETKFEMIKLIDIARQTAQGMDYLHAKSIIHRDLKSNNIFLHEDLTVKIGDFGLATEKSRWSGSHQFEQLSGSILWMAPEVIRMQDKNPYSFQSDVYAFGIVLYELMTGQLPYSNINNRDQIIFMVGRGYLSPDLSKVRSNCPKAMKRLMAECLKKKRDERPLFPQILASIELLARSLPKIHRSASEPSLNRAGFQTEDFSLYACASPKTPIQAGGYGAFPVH
# Chain of p38 MAPKα (Q16539 whole entry): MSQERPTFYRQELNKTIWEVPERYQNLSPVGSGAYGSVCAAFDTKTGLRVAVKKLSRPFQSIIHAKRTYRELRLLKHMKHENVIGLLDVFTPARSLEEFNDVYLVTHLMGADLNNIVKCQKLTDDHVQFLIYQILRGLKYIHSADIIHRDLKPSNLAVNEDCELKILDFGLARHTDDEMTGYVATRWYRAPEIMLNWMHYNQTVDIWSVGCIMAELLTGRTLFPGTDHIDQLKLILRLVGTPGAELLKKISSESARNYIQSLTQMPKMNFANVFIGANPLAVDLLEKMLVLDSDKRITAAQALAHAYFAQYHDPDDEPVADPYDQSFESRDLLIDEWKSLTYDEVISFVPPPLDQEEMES
Structure (SMILES),revertant colonies (mutagenic effects) [1],inhibition at 15 µM ([2]; 0 min preincubation) [%],inhibition at 15 µM ([2]; 30 min preincubation) [%],IC50 ([3]; 0 min preincubation) [µM],IC50 ([3]; 30 min preincubation) [µM],IC50 ([4]; 0 min preincubation) [µM],IC50 ([4]; 30 min preincubation) [µM],inhibition at 15 µM ([5]; 0 min preincubation) [%],inhibition at 15 µM ([5]; 30 min preincubation) [%],activity in adoptive transfer in vivo model of colonic inflammation [6],effect on the binding of the kinase B-Raf (V600e) to its standard ligand [7],inhibition of control specific binding in the receptor binding assays or enzyme assays [8],inhibition at 0.5 µM [9] [%],inhibition at 0.5 µM [10] [%],inhibition at 0.5 µM [11] [%],inhibition at 0.5 µM [12] [%]
"C#Cc1cc(Nc2nccc(Oc3ccc(NC(=O)Nc4cc(C(C)(C)C)nn4-c4ccc(OC)cc4)c4ccccc34)n2)cc(C(=O)NCCN2CCOCC2)c1 [Example 77, 3-((4-((4-(3-(3-(tert-Butyl)-1-(4-methoxyphenyl)-1H-pyrazol-5-yl)ureido)-naphthalen-1-yl)oxy)pyrimidin-2-yl)amino)-5-ethynyl-N-(2-morpholinoethyl)benzamide]",no dose-related or statistically significant increases in revertant colonies,-4,1,> 15,> 15,> 15,> 15,15,35,significant activity,did not have any effect on the binding,less than 25%,,,,
"COc1cc(Nc2nccc(Oc3ccc(NC(=O)Nc4cc(C(C)C)nn4-c4ccc(C)cc4)c4ccccc34)n2)cc(C(=O)NCCN2CCOCC2)c1 [Example 8, 3-((4-((4-(3-(3-Isopropyl-1-(p-tolyl)-1H-pyrazol-5-yl)ureido)naphthalen-1-yl)oxy)pyrimidin-2-yl)amino)-5-methoxy-N-(2-morpholinoethyl)benzamide]",,,,,,,,,,,,,82,100,19,95
